We go through 4 molecules from patent EP2151441A1, “Beta-carbolin-derivates as substrates for an enzyme” (Julius-Maximilians-Universität Würzburg, priority 2008, dated 2010).

Data set [1] concerns the target T1, CYP3A4 (Homo sapiens, UniProt P08684). The following applies: cited from earlier work; for Km: according to US 6,207,404 (BFC, BzRes) or Walsky and Obach 2004 (Midazolam).
A further data set deals with T2, recombinant human CPY3A4 (Homo sapiens, UniProt P08684).
T2 construct: purchased BD Biosciences (Supersomes)
In words: Catalytic activity of CYP3A4 for the reaction with substance 1a. The data set is classed as biochemical. As for the experimental part:
After incubation for 20 minutes at 37°C the metabolite 1b was quantified using liquid chromatography followed by mass spectrometry. For this reaction 4.5 pmol/min/pmol CYP3A4 could be determined as activity of the enzyme. According to US 6,207,404 the activity of CYP3A4 for the reaction of BFC at a concentration of 50 µM is about 1.5 pmol/min/pmol CYP3A4. […] For the determination of the catalytic activity of other CYP-enzymes with respect to the reaction of substance 1a 2 µM of substance 1a were contacted with 15 pmol/ml CYP enzyme (Supersomes®, BD Biosciences) and 2 mM NADPH in 100 mM potassium phosphate puffer (pH 7.4; 3 mM MgCl2) with the exception of CYP3A4 that was used at a concentration of 5 pmol/ml.

The target in a further data set is T3, CYP1B1 (Homo sapiens, UniProt Q16678).
T3 construct: purchased BD Biosciences (Supersomes)
T3 sequence (Q16678 1-543): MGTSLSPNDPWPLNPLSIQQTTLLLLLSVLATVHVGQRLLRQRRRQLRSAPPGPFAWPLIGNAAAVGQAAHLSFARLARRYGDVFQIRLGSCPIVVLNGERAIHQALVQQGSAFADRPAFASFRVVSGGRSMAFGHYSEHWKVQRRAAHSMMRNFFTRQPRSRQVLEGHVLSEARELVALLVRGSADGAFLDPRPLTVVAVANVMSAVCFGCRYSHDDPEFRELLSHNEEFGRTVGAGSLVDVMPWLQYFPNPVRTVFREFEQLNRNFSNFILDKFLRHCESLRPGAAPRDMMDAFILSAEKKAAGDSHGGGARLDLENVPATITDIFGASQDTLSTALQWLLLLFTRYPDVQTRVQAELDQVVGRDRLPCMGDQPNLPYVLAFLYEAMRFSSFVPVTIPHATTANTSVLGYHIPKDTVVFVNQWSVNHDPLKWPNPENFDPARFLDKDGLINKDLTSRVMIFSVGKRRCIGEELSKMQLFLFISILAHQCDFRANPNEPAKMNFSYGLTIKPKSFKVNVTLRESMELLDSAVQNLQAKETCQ
The data set is described as follows: Catalytic activity of other CYP enzymes for the reaction of substance 1a. The data set is classed as biochemical. As to conditions: 2 µM substance 1a, 15 pmol/ml CYP enzyme, Fig. 2. The method, then: (§1) For the determination of the catalytic activity of other CYP-enzymes with respect to the reaction of substance 1a 2 µM of substance 1a were contacted with 15 pmol/ml CYP enzyme (Supersomes®, BD Biosciences) and 2 mM NADPH in 100 mM potassium phosphate puffer (pH 7.4; 3 mM MgCl2) with the exception of CYP3A4 that was used at a concentration of 5 pmol/ml.

A further data set deals with T4, CYP2D6 (Homo sapiens, UniProt P10635).
T4 construct: purchased BD Biosciences (Supersomes)
The data set is described as above. Format: biochemical. The following applies: 2 µM substance 1a, 15 pmol/ml CYP enzyme, Fig. 2. The method, then:
as §1

The target of data set [2] is T1, CYP3A4. The data set is described as follows: Determination of Km and Vmax of the CYP3A4-catalyzed O-dealkylation reaction (LC-MS quantification of reaction product 1b). Format: biochemical. More on the design: purchased BD Biosciences (Supersomes). The following applies: Vmax comparison with BFC. The method, then: The Michaelis-Menten constant (Km) and the maximal reaction velocity (Vmax) are important parameters for inhibition assays. To determine the inhibitory activity of test compounds the substrate concentration in the assay should be about the Km value. […] After incubation for 20 minutes at 37°C the reaction product 1b was quantified using mass spectrometry after liquid chromatography. […] For the calculation of Km and Vmax the Sigma Plot 10.0 software with enzyme kinetic module (SPSS, Inc., Chicago, IL, USA) was used.

The mark [3] stands for this setting: according to US 6,207,404 (BzRes) or Walsky and Obach 2004 (Midazolam).

The structures appear in SMILES notation. Like-named read-outs stand apart in the source and are kept apart here.

T1 sequence (P08684 whole entry): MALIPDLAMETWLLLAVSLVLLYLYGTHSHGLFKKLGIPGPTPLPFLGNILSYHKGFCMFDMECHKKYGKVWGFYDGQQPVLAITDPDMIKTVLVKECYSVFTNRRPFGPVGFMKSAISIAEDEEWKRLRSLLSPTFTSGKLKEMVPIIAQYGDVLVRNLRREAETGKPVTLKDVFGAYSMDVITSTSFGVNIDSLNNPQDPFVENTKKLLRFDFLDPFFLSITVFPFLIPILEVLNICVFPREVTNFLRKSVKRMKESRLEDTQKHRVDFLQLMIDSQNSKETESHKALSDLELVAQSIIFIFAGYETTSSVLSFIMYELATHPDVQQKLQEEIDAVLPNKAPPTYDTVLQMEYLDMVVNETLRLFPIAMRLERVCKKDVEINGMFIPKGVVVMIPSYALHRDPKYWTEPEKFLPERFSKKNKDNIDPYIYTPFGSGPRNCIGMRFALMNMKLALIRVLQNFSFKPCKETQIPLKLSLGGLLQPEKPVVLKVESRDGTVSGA
T2 sequence (P08684 whole entry): as above
T4 sequence (P10635 whole entry): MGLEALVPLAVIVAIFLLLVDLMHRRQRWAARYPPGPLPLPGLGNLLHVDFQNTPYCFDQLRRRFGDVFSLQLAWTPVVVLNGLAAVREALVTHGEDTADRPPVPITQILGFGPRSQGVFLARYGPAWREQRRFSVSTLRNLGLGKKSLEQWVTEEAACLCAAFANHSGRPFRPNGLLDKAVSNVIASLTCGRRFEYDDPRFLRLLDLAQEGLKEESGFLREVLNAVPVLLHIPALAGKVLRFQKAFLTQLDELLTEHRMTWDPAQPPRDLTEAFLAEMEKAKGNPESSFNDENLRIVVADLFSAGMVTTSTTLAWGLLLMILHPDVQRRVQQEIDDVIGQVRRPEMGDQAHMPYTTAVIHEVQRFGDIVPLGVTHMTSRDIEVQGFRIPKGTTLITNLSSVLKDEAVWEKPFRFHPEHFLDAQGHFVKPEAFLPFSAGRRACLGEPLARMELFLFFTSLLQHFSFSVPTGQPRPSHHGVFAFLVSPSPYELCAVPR

As to `O=c1ccc2nc3ccc(OCc4ccccc4)cc3oc-2c1` [BzRes, benzyloxyresorufin], the Km (usually the substrate concentration at which the rate is half of its maximum) on CYP3A4 [1] is 38 µM. Further, on CYP3A4 [1] (setting [3]), the Vmax is on record as 0.3 pmol/min/pmol CYP3A4.
Regarding `Cc1c2[nH]c3cc(OCc4ccccc4)ccc3c2cc[n+]1Cc1ccccc1.O=C([O-])C(F)(F)F` [Substance 1a, 2-benzyl-7-benzyloxy-1-methyl-9H-pyrido[3,4-b]indol-2-ium trifluoroacetate salt], on recombinant human CPY3A4 (2 µM 1a versus 50 µM BFC), the “activity of the enzyme relative to the reaction of BFC” value worked out at 3 fold. On recombinant human CPY3A4 (2 µM substance 1a, 5 pmol/ml CYP3A4, 2 mM NADPH, 20 minutes at 37°C), the “activity of the enzyme” value came out at 4.5 pmol/min/pmol CYP3A4. In addition, the “reaction of substrate 1a to reaction product 1b catalyzed by enzyme” value is on record as “could be catalyzed” on recombinant human CPY3A4 (2 µM substance 1a, CYP3A4 at 5 pmol/ml, Fig. 2); “could be catalyzed” at CYP1B1; “could be catalyzed” at CYP2D6. Besides, at CYP3A4 [2], the “reaction velocity relative to BFC” value was “about 5 fold”.
Consider `Cc1ncc2n1-c1ccc(Cl)cc1C(c1ccccc1F)=NC2` [Midazolam], for which the Km at CYP3A4 [1] was 0.6 µM. Further, the Vmax at CYP3A4 [1] (setting [3]) was 16.3 pmol/min/pmol CYP3A4.
`O=c1cc(C(F)(F)F)c2ccc(OCc3ccccc3)cc2o1` [BFC, 7-benzyloxy-4-trifluoromethylcumarin]: the “activity of CYP3A4 for the reaction of BFC” value at CYP3A4 [1] (BFC at a concentration of 50 µM, according to US 6,207,404) was “about 1.5 pmol/min/pmol CYP3A4”. The Km on CYP3A4 [1] is greater than 200 µM. Besides, at CYP3A4 [1] (at 40 µM BFC, according to US 6,207,404), the Vmax is listed as 1.5 (at 40 µM BFC) pmol/min/pmol CYP3A4.
